{"source": "BindingDB's records for doi:10.1016/j.ejmech.2022.114789", "about": "(Sichuan University, 2022)", "molecular_target": "T1, Catenin beta-1 (Homo sapiens, UniProt P35222)", "T1 sequence (P35222 whole entry)": "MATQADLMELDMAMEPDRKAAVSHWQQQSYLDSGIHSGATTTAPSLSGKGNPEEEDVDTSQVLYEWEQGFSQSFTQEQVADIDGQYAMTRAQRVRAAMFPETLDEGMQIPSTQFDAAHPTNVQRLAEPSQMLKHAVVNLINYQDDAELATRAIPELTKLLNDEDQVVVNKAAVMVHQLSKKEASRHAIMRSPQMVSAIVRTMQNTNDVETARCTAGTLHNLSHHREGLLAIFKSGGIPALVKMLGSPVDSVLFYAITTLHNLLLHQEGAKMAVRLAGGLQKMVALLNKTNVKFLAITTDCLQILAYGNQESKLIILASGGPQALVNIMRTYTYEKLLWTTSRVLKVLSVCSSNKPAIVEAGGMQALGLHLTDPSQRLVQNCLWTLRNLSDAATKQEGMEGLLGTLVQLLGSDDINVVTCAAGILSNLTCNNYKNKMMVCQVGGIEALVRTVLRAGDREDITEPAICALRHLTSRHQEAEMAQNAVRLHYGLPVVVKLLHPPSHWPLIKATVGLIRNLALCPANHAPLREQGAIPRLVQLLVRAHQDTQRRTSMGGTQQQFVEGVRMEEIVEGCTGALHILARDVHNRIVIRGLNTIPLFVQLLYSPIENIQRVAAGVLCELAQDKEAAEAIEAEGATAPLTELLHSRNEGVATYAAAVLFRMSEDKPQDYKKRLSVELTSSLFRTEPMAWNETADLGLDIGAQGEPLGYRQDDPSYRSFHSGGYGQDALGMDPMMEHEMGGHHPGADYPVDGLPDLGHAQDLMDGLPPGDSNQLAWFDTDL", "experiment": "Inhibition of His6-tagged human beta-Catenin (138 to 686 residues)/biotinylated human BCL9 (350 to 375 residues) protein-protein interaction assessed as inhibition constant by AlphaScreen competitive assay"}
{"smiles": "O=C(Nc1ccc(O[C@H]2CCNC2)c(-c2ccc(F)cc2)c1)c1ccc(O[C@H]2CCNC2)c(-c2ccc(F)c(F)c2)c1", "values": [{"measurement": "Ki", "result": 2100, "unit": "nM"}]}
